Experimental data published in EP0109294A2, “Cephalosporin esters” (Takeda Chemical Industries, Ltd., priority 1982, dated 1984).
Counter-ions that a name gives are not always drawn.

Assay: in vivo
Set-up: species or system mice
Settings: mouse, 100 mg/kg; for Bio-availability / AUC / Plasma level of non-ester 2 hr: 120 min; for Plasma level of non-ester 0.25 hr / Plasma level of non-ester 0.5 hr / Plasma level of non-ester 1 hr / AUC / Plasma level of non-ester 2 hr: po; for Plasma level of non-ester 0.25 hr: 15 min; for Plasma level of non-ester 0.5 hr: 30 min; for Plasma level of non-ester 1 hr: 60 min
Method: The compounds produced according to the Examples (Compound Nos. 2, 4, 6 and 8) and, as a reference control, pivaloyloxymethyl ester of compound (II) (hereinafter referred to as Compound A) are orally administered to mice at a common dose level of 100 mg/kg (as the non-ester, i.e. compound (II) per mouse). After administration, the plasma concentrations of compound (II) at 0.25, 0.5, 1.0 and 2.0 hours are determined by the cup assay method (using Proteus mirabilis Eb 313 as the test organism) and the area under plasma concentration- time curve (AUC) over 0 to 2 hours is calculated.
As a control, compound (II) is subcutaneously administered to mice at the same dose and the AUC is similarly calculated.

SMILES	Bio-availability	Plasma level of non-ester 0.25 hr [µg/mL]	Plasma level of non-ester 0.5 hr [µg/mL]	Plasma level of non-ester 1 hr [µg/mL]	AUC [µg·h/mL]	Plasma level of non-ester 2 hr [µg/mL]	AUC at 2 h (sc) [µg·h/mL]	concentration at 0.25 h (sc) [µg/mL]	concentration at 0.5 h (sc) [µg/mL]	concentration at 1 h (sc) [µg/mL]	concentration at 2 h (sc) [µg/mL]	Bio-availability (sc)
CN(C)CCn1nnnc1SCC1=C(C(=O)OCOC(=O)C(C)(C)C)N2C(=O)[C@@H](NC(=O)Cc3csc(N)n3)[C@H]2SC1 [Compound A, pivaloyloxymethyl ester of compound (II), reference compound]	41.8	21.0	16.2	6.1	16.2	0.6	–	–	–	–	–	–
CC(OC(=O)CC1CCCCC1)OC(=O)C1=C(CSc2nnnn2CCN(C)C)CS[C@@H]2[C@H](NC(=O)Cc3csc(N)n3)C(=O)N12 (stereo partly drawn) [Compound No. 2, 1-(Cyclohexylacetoxy)ethyl 7β-[2-(2-aminothiazol-4-yl)acetamido]-3-[[[1-(2-dimethylaminoethyl)-1H-tetrazol-5-yl]thio]methyl] ceph-3-em-4-carboxylate dihydrochloride]	107.7	43.9	45.2	16.4	41.8	3.1	–	–	–	–	–	–
CC(OC(=O)C1=C(CSc2nnnn2CCN(C)C)CS[C@@H]2[C@H](NC(=O)Cc3csc(N)n3)C(=O)N12)OC(=O)C1CCCCC1 (stereo partly drawn) [Compound No. 4, 1-(Cyclohexanecarbonyloxy)ethyl 7β-[2-(2-amino-thiazol-4-yl)acetamido]-3-[[[1-(2-dimethylaminoethyl)-1H-tetrazol-5-yl]thio]methyl] ceph-3-em-4-carboxylate dihydrochloride]	76.2	43.6	31.7	8.38	29.6	1.01	–	–	–	–	–	–
CC(OC(=O)CC1CCCC1)OC(=O)C1=C(CSc2nnnn2CCN(C)C)CS[C@@H]2[C@H](NC(=O)Cc3csc(N)n3)C(=O)N12 (stereo partly drawn) [Compound No. 6, 1-(Cyclopentylacetoxy)ethyl 7β-[2-(2-aminothiazol-4-yl)acetamido]-3-[[[1-(2-dimethylaminoethyl)-1H-tetrazol-5-yl]thio]methyl] ceph-3-em-4-carboxylate dihydrochloride]	82.2	23.2	27.2	16.9	31.9	6.46	–	–	–	–	–	–
CC(OC(=O)C1=C(CSc2nnnn2CCN(C)C)CS[C@@H]2[C@H](NC(=O)Cc3csc(N)n3)C(=O)N12)OC(=O)C1CCCC1 (stereo partly drawn) [Compound No. 8, 1-(Cyclopentanecarbonyloxy)ethyl 7β-[2-(2-aminothiazol-4-yl)acetamido]-3-[[[1-(2-dimethylaminoethyl)-1H-tetrazol-5-yl]thio]methyl] ceph-3-em-4-carboxylate dihydrochloride]	78.3	42.5	29.9	10.5	30.4	1.35	–	–	–	–	–	–
CN(C)CCn1nnnc1SCC1=C(C(=O)O)N2C(=O)[C@@H](NC(=O)Cc3csc(N)n3)[C@H]2SC1 [compound (II), 7S-[2-(2-aminothiazol-4-yl)-acetamido]-3-[[[1-(2-dimethylaminoethyl)-1H-tetrazol-5-yl]thio]methyl]ceph-3-em-4-carboxylic acid, reference compound]	–	–	–	–	–	–	38.8	69.2	29	13.2	1.5	100
